This is an account of results in article PMC3919815, “Anti-Tumor Effects of Novel 5-O-Acyl Plumbagins Based on the Inhibition of Mammalian DNA Replicative Polymerase Activity” (PLoS ONE, 2014).

One assay deals with HeLa (cervical cancer). As to the kind of experiment: Cancer cell viability, MTT assay. In kind it is cell-based, human. The note with it: 48 h, mean ± SD (n = 5). The procedure:
(§1) The following human cancer cell lines were obtained from the American Type Culture Collection (Manassas, VA, USA): lung (A549), prostate (DU145 and PC3), colon (HCT116 and HT-29), cervix (HeLa), hepatocellular liver (HepG2), breast (MCF-7), and pancreatic cancer (PANC-1). These cells were cultured in RPMI 1640 medium supplemented with 10% fetal bovine serum, penicillin (100 units/mL), streptomycin (100 µg/mL), and 1.6 mg/mL NaHCO3 at 37°C in a humid atmosphere of 5% CO2/95% air. For the cell viability assay, cells were seeded at 1×10^3 cells/well in a 96-well microplate with various concentrations of the test compounds, and incubated for 48 h. MTT (3-(4,5-dimethylthiazol-2-yl)-2,5-diphenyl tetrazolium bromide) solution was added to a final concentration 0.6 mg/mL in Milli-Q purified water for 2 h, after which time the medium was discarded and the cells lysed in DMSO. A540 was then measured in a microplate reader (Model 680, Bio-Rad Laboratories, Hercules, CA, USA).
(Tetrazolium dyes change colour on reduction, which living cells bring about.)

Assay [1] has as its system PANC-1 (pancreatic cancer). As to the kind of experiment: Cancer cell viability, MTT assay. The class given is cell-based, human. The note with it: 48 h, mean ± SD (n = 5). The procedure:
as §1

Assay [2] deals with HT-29 cells (colon cancer). As to the kind of experiment: Cancer cell viability, MTT assay. In kind it is cell-based, human. As to conditions: 48 h, mean ± SD (n = 5). Here is the method: as §1
In the next assay the test system is PC3 (prostate cancer). As to the kind of experiment: Cancer cell viability, MTT assay. The class given is cell-based, human. As to conditions: 48 h, mean ± SD (n = 5). The procedure: as §1
The test system of assay [3] is HepG2 (hepatocellular liver cancer). As to the kind of experiment: Cancer cell viability, MTT assay. As to conditions: 48 h, mean ± SD (n = 5). The class given is cell-based, human. Here is the method:
as §1

In assay [4] the test system is nine human cancer cell lines. Put plainly: Cancer cell viability, MTT assay, summary over the panel. In kind it is cell-based. The note with it: range over nine cell lines, 48 h. The procedure:
as §1

The subject of the next assay is HT-29 solid tumors. Put plainly: In vivo anti-tumor assay. More on the design: species or system nude mice. From the text: Male BALB/c nu/nu mice at 5 week of age (18 g) were purchased from Japan SLC, Inc. (Shizuoka, Japan). Mice receiving standard laboratory chow and water ad libitum were acclimatized for 1 week before inoculation with cancer cells. For in vivo experiments, human colon HT-29 cells (1×10^7 cells/mouse) were subcutaneously injected into nude mice. Mice bearing solid tumors that had grown to approximately 100 mm^3 in volume (tumor volume = length×width×height) at 12 days after implantation were used for the assessment of anti-tumor effects. They were divided randomly into five groups (n = 6/group). One of the five groups was a control group injected with 0.1 mL of phosphate buffered saline (PBS) alone, and other groups were injected with vitamin K3 (3), juglone (4), C18:1-acyl juglone (5f), and C18:1-acyl plumbagin (2f) dissolved in PBS at a dose of 5 mg/kg. The above administrations all took place between days 12–39 subsequent to implantation. All mice were injected subcutaneously 14 times at […] with the compound and PBS alone (control). Tumor growth was measured at 1-day intervals for 40 days after implantation. At the end of the in vivo anti-tumor assay, some mice treated with the test compounds and PBS were independently examined to observe major organs such as lung, heart, spleen, stomach, liver, pancreas, kidney, intestine, and brain.

Take `CCCCCCCC/C=C\CCCCCCCC(=O)Oc1cccc2c1C(=O)C=C(C)C2=O` [2f, 5-O-oleoyl-2-methyl-1,4-naphthoquinone]: the LD50 values with HeLa (cervical cancer) was found to be 21.0 ± 2.5 µM; in assay [1], 16.1 ± 1.8 µM; in assay [2], 2.9 ± 0.4 µM; in assay [2] (listed as C18:1-acyl plumbagin), 2.9 µM; in the assay with PC3 (prostate cancer), 10.0 ± 1.1 µM; in assay [3], 7.4 ± 0.8 µM. The LD50 values in assay [4] lay in the range of 2.9 to 21.0 µM. For the same compound, the “anti-tumor effect, fold stronger than the other compounds tested” value with HT-29 solid tumors (5 mg/kg, versus vitamin K3, juglone, C18:1-acyl juglone) is given as more than 3 fold. Also, the “decreased rates of tumor volume” value in the assay with HT-29 solid tumors (at 40 days, 5 mg/kg subcutaneously in PBS, versus PBS control, n = 6) stood at 30.5%.
